Measurements as given in patent publication US20200085782A1, “COMPOSITIONS AND METHODS OF ENHANCING OR AUGMENTING TYPE I IFN PRODUCTION” (Mavupharma, Inc., priority 2016, published 2020).

Experiments:
human recombinant ENPP1 [1] = biological target: T1, human recombinant ENPP1 (Homo sapiens, UniProt P22413); assay: ENPP1 assay with 2′,3′-cGAMP substrate (AMP-Glo); type: biochemical
T1 sequence (P22413 1-925): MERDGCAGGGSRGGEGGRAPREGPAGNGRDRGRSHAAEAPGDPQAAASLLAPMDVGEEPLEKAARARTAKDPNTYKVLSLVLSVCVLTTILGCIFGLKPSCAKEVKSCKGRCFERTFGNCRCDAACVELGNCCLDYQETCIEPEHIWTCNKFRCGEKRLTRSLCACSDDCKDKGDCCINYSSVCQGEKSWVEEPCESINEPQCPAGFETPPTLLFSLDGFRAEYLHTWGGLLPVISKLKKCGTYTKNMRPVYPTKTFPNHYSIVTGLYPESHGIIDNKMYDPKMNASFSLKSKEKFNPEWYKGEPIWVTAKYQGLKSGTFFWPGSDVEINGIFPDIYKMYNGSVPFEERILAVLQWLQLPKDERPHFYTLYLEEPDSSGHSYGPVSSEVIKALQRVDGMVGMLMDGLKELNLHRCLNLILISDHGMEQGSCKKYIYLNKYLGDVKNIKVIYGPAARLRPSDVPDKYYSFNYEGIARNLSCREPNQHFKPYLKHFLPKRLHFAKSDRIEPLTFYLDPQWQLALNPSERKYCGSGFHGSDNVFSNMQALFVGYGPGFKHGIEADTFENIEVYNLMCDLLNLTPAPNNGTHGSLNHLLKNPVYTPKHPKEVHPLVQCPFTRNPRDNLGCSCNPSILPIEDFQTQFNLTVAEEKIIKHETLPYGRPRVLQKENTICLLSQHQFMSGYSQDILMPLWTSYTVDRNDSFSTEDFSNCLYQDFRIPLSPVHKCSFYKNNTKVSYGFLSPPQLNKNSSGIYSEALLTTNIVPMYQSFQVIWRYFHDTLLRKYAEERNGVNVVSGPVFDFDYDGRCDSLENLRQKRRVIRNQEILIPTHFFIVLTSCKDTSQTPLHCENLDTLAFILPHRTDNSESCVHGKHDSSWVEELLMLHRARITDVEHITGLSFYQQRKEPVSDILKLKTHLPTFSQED
Method: The AMP-Glo™ Assay Kit contains two reagents that are added sequentially. The first converts the 5′-AMP produced in the reaction to 5′ADP. The second converts the 5′-ADP to 5′ATP and reacts the 5′-ATP with the luciferase/luciferin pair to produce the luminescence signal. […] Inhibitors are added at final concentrations ranging between 10 μM and 30 pM depending on the compound. Duplicate wells are run at each inhibitor concentration. The final assay volume is 18 μL and human recombinant ENPP1 is present at 5 ng/well. The assay is initiated by the addition of substrate (20 μM 2′3′cGAMP final concentration), and incubated for 30 minutes at 37° C. To stop the reaction, 12 μl of AMP-Glo reagent I is added and the plate is incubated for 60 minutes at room temperature. 25 μl of AMP-detection reagent is then added and the wells are again incubated for 60 minutes at room temperature. The luminescence signal is then measured using a plate-reading luminometer. Each assay plate also includes wells with no enzyme added (MIN OD) and wells with no inhibitor added (MAX OD). The percent inhibition of ENPP1 for each sample is then calculated as: […]
IC50 values of compounds were calculated by entering the percent inhibition values into a sigmoidal variable slope nonlinear regression model in GraphPad Prism® software. IC50 values were converted to Ki values using the Cheng-Prusoff equation2 where the Km was 15 μM, based on internal determinations.

THP-1 cells = assay: PDE inhibitors library screen on cGAMP activated THP-1 cells, IFNβ ELISA; type: cell-based, human; details: THP-1 cells activated with 2′,3′-cGAMP; test compound 10 μM; 24 hours; FIG. 3A-3C
Method: THP-1 Cell Activation and Screening of Test Compounds: • (a) THP-1 cells from bulk cultures were counted and suspended in RPMI 1640, 20% FBS, 2.5 mM L-alanyl-L-glutamine at a concentration of 5.5×10^6 cells/mL. The THP-1 cells were subsequently seeded into 96 well round bottom plates—volume of 180 μL/well (1×10^6 cells per well), and the plate was incubated for 1 hour at 37° C., 5% CO2. • (b) Test compounds comprising known phosphodiesterase inhibitors (PDEs), were screened in triplicate (N1, N2, N3) on THP-1 cells. For compound screening, test compounds were assayed at a final concentration of 10 μM. A 200 μM (0.2 mM) working solution of each compound was prepared by diluting 10 mM DMSO stock solutions of each compound in media at a dilution of 50:1 (1640, 20% FBS, 2.5 mM L-alanyl-L-glutamine). […] Cell culture supernatants were then transferred to a clean plate and stored at −80° C. until ready to analyze for IFNβ levels. • (j) IFNβ levels in cell culture supernatants were determined by ELISA according to the manufacturer's instructions (VeriKine Human IFNβ Assay). • (k) The interpolated data was normalized to vehicle control, or unstimulated control, and analyzed.

human recombinant ENPP1 [2] = biological target: T1, human recombinant ENPP1; assay: ENPP1 assay with AMP-pNP substrate (ATP analog), absorbance at 405 nm; type: biochemical; details: read-out: ENPP1 inhibition Ki, AMP-pNP Substrate
Method: ENPP1 is an ectonucleotidase that hydrolyzes both the STING activator 2′,3′-cGAMP and 5′ATP (ATP). In some instances, an inhibitor of ENPP-1 is capable of selectively blocking the hydrolysis of 2′,3′-cGAMP while only minimally inhibiting the hydrolysis of ATP. […] The ENPP1 assay with AMP-pNP substrate is conducted in a buffer containing 50 mM Tris-HCl (pH 8.5)/250 mM NaCl/0.5 mM CaCl2/1 μM ZnCl2/0.1% DMSO. Inhibitors are added at final concentrations ranging between 10 μM and 30 pM depending on the compound. Duplicate wells are run at each inhibitor concentration. The final assay volume is 40 μL and human recombinant ENPP1 is present at 60 ng/well. The assay is initiated by the addition of substrate (300 μM AMP-pNP final concentration), and incubated for 20 minutes at 37° C. The absorbance at 405 nm is then read in a Tecan® plate reader. Each assay plate also includes wells with no enzyme added (MIN OD) and wells with no inhibitor added (MAX OD). The percent inhibition of ENPP1 for each sample is then calculated as: […]
IC50 values of compounds were calculated by entering the percent inhibition values into a sigmoidal variable slope nonlinear regression model in GraphPad Prism® software. IC50 values were converted to Ki values using the Cheng-Prusoff equation, where the Km was 151 μM, based on internal determinations

| SMILES | Substrate Selectivity Ki Ratio AMP-pNP/2′3′cGAMP (human recombinant ENPP1 [1]; Ki (AMP-pNP)/Ki (2′3′-cGAMP)) | further results |
| --- | --- | --- |
| COc1cc2ncnc(N3CCC(CCN)CC3)c2cc1OC [Compound 5] | >642 | – |
| COc1cc2ncnc(-c3ccc4c(c3)CN(S(N)(=O)=O)CC4)c2cc1OC [Compound 21] | 36.2 | – |
| CCN(C)S(=O)(=O)NCCC1CCN(c2ncnc3cc(OC)c(OC)cc23)CC1 [Compound 12] | >89.0 | – |
| COc1cc2ncnc(N3CCN(C(=O)CNS(N)(=O)=O)CC3)c2cc1OC [Compound 15] | 57.3 | – |
| COc1cc2nccc(Oc3ccc(NS(=O)(=O)c4ccccc4)cc3)c2cc1OC [Compound 25] | >6.80 | selectivity for inhibition of cGAMP over AMP-pNP hydrolysis by ENPP1 (human recombinant ENPP1 [1]; Ki (AMP-pNP)/Ki (2′3′-cGAMP)): ~6.8 fold |
| COc1cc2ncnc(NCc3ccc(NS(N)(=O)=O)cc3)c2cc1OC [Compound 22] | 34.7 | – |
| COc1cc2nc(-c3ccccc3)nc(N3CCC(CCNS(N)(=O)=O)CC3)c2cc1OC [Compound 23] | >23.9 | – |
| COc1cc2ncnc(N3CCC4(CC3)CCN(S(C)(=O)=O)C4)c2cc1OC [Compound 19] | 44.8 | – |
| O=c1cc(-c2ccc(O)c(O)c2)oc2cc(O)cc(O)c12 [Compound 1] | – | inhibition at 1 µM (human recombinant ENPP1 [1]; at 1 μM compound, AMP-GLO method, read-out: Inhibition of ENPP1 with cGAMP as the Substrate): 76%; inhibition at 10 µM (human recombinant ENPP1 [1]; at 10 μM compound, AMP-GLO method, read-out: Inhibition of ENPP1 with cGAMP as the Substrate): 99%; cGAMP mediated IFNβ production (THP-1 cells): augmentation of cGAMP mediated IFNβ production |
| CS(=O)(=O)N1CCc2ccc(-c3ncnc4ccccc34)cc2C1 [Compound 8] | >158 | – |
| COc1cc2ncnc(-c3ccc(CNS(N)(=O)=O)cc3)c2cc1OC [Compound 17] | 48.3 | – |
| COc1cc2ncc(C#N)c(N3CCC(CCNS(C)(=O)=O)CC3)c2cc1OC [Compound 7] | 244 | – |
| CNc1nc(N2CCC(CCNS(N)(=O)=O)CC2)c2cc(OC)c(OC)cc2n1 [Compound 20] | >38.7 | – |
| CN1CNc2ncnc(N3CCC(CCNS(C)(=O)=O)CC3)c21 [Compound 9] | >128 | – |
| COc1cc2ncnc(N3CCC(CNS(N)(=O)=O)CC3)c2cc1OC [Compound 13] | 86.7 | – |
| COc1cc2ccc(=O)n(Cc3ccc(NS(N)(=O)=O)cc3)c2cc1OC [Compound 10] | >127 | Ki (human recombinant ENPP1 [1]; read-out: ENPP1 inhibition Ki, cGAMP Substrate): 234 nM; Ki (human recombinant ENPP1 [2]): > 30000 nM |
| COc1cc2ncnc(N3CCC4(CC3)CN(S(C)(=O)=O)C4)c2cc1OC [Compound 24] | 18.7 | – |
| COc1cc2nc(N)nc(N3CCC(CCNS(N)(=O)=O)CC3)c2cc1OC [Compound 18] | 47.7 | – |
